Source: the NIST ThermoML archive (doi:10.1021/je700033y)
Numbers after ± are expanded uncertainties.

Conditions: Liquid, High pressure cell

vapor or sublimation pressure (353.1 K): 181 ± 3 kPa
vapor or sublimation pressure (393.1 K): 635 ± 3 kPa
Compound: CO [methanol]
